Assay results: PMC10501326, “A Phase I Study of the Pan-Notch Inhibitor CB-103 for Patients with Advanced Adenoid Cystic Carcinoma and Other Tumors” (Cancer Research Communications, 2023)
Values joined by “and” are separate entries in the source; they are usually repeats but may differ in a detail not shown here. Equal entries are not always repeated.

Experiments:
Format in all cases: in vivo, human
[1] = test system: advanced solid tumors, adenoid cystic carcinoma (ACC); assay: Antitumor efficacy and survival (RECIST v1.1 response, CBR, PFS, OS)
From the text: The study enrolled adults with histologically confirmed, locally advanced and/or metastatic solid tumors who had progressed on at least one line of prior systemic therapy (except for ACC) and relapsed/refractory T-ALL/LBL for whom no standard therapy was available. In dose escalation, participants with solid tumors with known or frequent Notch pathway–activating mutations were eligible (breast cancer, gastrointestinal tumors, hepatocellular carcinoma, osteosarcoma, malignant glomus tumor, and ACC), while the confirmatory cohort planned to enroll participants with selected tumor types (including T-ALL/LBL) and confirmed Notch pathway activation. Key eligibility criteria included patients ≥18 years of age with evaluable disease, Eastern Cooperative Oncology Group (ECOG) performance status 0–1, able to swallow capsules, and adequate organ function. Participants were excluded if they had clinically significant cardiac disease or thromboembolic events within the preceding 6 months, and drugs prolonging the QTc were avoided. A complete list of eligibility criteria is outlined in the Supplementary Materials and Methods.
Safety was assessed via monitoring of DLTs during the first treatment cycle, and of AEs, physical exam, and clinical lab results (hematology, coagulation, blood chemistry, urinalysis, and cardiac markers) throughout the study (Supplementary Table S1). 12-lead electrocardiograms and Holter safety monitoring with periodic cardiac imaging was employed. Efficacy assessments used RECIST v1.1 applied to CT/MRI scans performed at screening and every 8 weeks; or evaluated complete remission with complete hematologic recovery by National Comprehensive Cancer Network guideline criteria for T-ALL/T-LBL. Adherence to study drug administration was evaluated using both patient diaries and capsule counts.
The primary endpoint for dose escalation was the number of patients experiencing DLT during the first 28-day cycle of CB-103 and for the confirmatory phase, the incidence rate, severity, and relationship of AEs to CB-103. Secondary endpoints included assessment of clinical benefit rate [CBR; defined as achieving complete and/or partial response and/or stable disease (SD) at prespecified benchmarks], duration of response, progression-free survival (PFS) and overall survival (OS), and plasma pharmacokinetics.
The objective of the BLRM design ([10]) was to determine the MTD defined as the highest dose with less than 25% risk of the true DLT rate being above 33%. The MTD was considered reached if one of the following criteria was fulfilled: (i) if the posterior probability of the true DLT rate in the target interval (16%–33%) of the MTD was >50%, and (ii) at least 6 patients were treated at the MTD. Under this model, and accounting for dropouts and some additional patients enrolled to each cohort, approximately 55 patients were anticipated to enroll in dose escalation and approximately 45 patients in the confirmatory phase. Data were reported using 95% confidence intervals (CI) and survival endpoints (PFS, OS) are reported from the time of first treatment to the first of progression or death summarized by Kaplan–Meier estimates. All statistical analyses were analyzed using SAS v9.4 software.

HEY1 = assay: Peripheral whole blood Notch target gene expression (Nanostring); details: twice daily dosing, vs baseline
From the text: (§1) Archival tumor tissue (not older than 6 months prior to screening) or fresh tumor biopsy was required to characterize Notch alteration status by targeted genomic sequencing and/or NICD1 expression (via IHC) among the confirmatory cohort at baseline. Repeat biopsy on cycle 2 day 15 and at disease progression was optional. Serial whole blood samples (and/or bone marrow samples and saliva among patients with T-ALL/T-LBL) were obtained on day 1 of cycles 1–6 to evaluate the dynamics of Notch gene expression. Peripheral blood was collected with PaxGene tubes and frozen at −20°C until processing. RNA was extracted (Qiagen RNeasy Micro kit) from peripheral whole blood and analyzed by Nanostring with percent change in expression levels reported with respect to baseline normalized values.

IL7R alpha = assay: as above; details: twice daily dosing, vs baseline
From the text: as §1

NOTCH 2 = assay: as above; details: twice daily dosing, vs baseline
From the text: as §1

NOTCH1 = assay: as above; details: twice daily dosing, vs baseline
From the text: as §1

NOTCH4 = assay: as above; details: twice daily dosing, vs baseline
From the text: as §1

[2] = ACC confirmatory cohort (n = 12), 500 mg once daily
[3] = All solid tumor patients (n = 76)
[4] = individual patient, total dose 800 mg
[5] = individual patients, total dose 500 mg
[6] = individual patients, total dose 600 mg
[7] = individual patients, total dose 1000 mg

In the case of `CC(C)(C)c1ccc(Oc2ccc(N)cn2)cc1` [CB-103], the “3-month PFS (95% CI)” value [1, 2] is reported as 10.9 (0.6–38.0), the “Best overall response: Complete response” value [1, 2] is reported as 0 n, % and the “Best overall response: Partial response” value [1, 2] is reported as 0 n, %. The “Best overall response: Progressive disease” value [1, 2] was 7 (58) n, %, the “Best overall response: Stable disease” value [1, 2] was 3 (25) n, % and the “Best overall response: Unevaluable” value [1, 2] was 2 (17) n, %. For the same compound, the “Clinical benefit rate, 3 months (95% CI)” value [1, 2] was 25.0 (5.5–57.2) — — %, the “Median OS (95% CI)” value [1, 2] was 5.4 (1.3–5.4) months and the “Median PFS (95% CI)” value [1, 2] was 1.4 (0.8–2.3) months. The “Overall survival: No. of deaths” value [1, 2] was 4 (33) n, %, the “Progression-free survival: No. of events” value [1, 2] was 10 (83) n, % and the “3-month PFS (95% CI)” value ([1]; All patients with ACC (n = 40)) was 46.8 (30.4–61.7). For the same compound, the “6-month OS (95% CI)” value ([1]; All patients with ACC (n = 40)) was 72.4 (53.1–84.8) %, the “6-month PFS (95% CI)” value ([1]; All patients with ACC (n = 40)) was 18.6 (7.9–32.8) % and the “9-month PFS (95% CI)” value ([1]; All patients with ACC (n = 40)) was 6.2 (1.1–17.8). The “12-month OS (95% CI)” value ([1]; All patients with ACC (n = 40)) was 57.3 (37.5–73.0) %, the “12-month PFS (95% CI)” value ([1]; All patients with ACC (n = 40)) was 6.2 (1.1–17.8) and the “Best overall response: Complete response” value ([1]; All patients with ACC (n = 40)) was 0 n, %. For the same compound, the “Best overall response: Partial response” value ([1]; All patients with ACC (n = 40)) was 0 n, %, the “Best overall response: Progressive disease” value ([1]; All patients with ACC (n = 40)) was 13 (33) n, % and the “Best overall response: Stable disease” value ([1]; All patients with ACC (n = 40)) was 23 n, % and 23 (58%) n, % and 23 (58) n, %. The “Best overall response: Unevaluable” value ([1]; All patients with ACC (n = 40)) was 4 (10) n, %, the “Clinical benefit rate, 3 months (95% CI)” value ([1]; All patients with ACC (n = 40)) was 57.5 (40.9–73.0) % and the “Clinical benefit rate, 6 months (95% CI)” value ([1]; All patients with ACC (n = 40)) was 27.5 (14.6–43.9) %. The “Clinical benefit rate, 9 months (95% CI)” value ([1]; All patients with ACC (n = 40)) was 2.5 (0.1–13.2) %, the “Median OS (95% CI)” value ([1]; All patients with ACC (n = 40)) was 18.4 months and the “Median PFS (95% CI)” value ([1]; All patients with ACC (n = 40)) was 2.5 (1.5–3.7) months. The “Overall survival: No. of deaths” value ([1]; All patients with ACC (n = 40)) was 15 (38) n, %, the “Progression-free survival: No. of events” value ([1]; All patients with ACC (n = 40)) was 35 (88) n, % and the “3-month PFS (95% CI)” value [1, 3] was 38.7 (26.5–50.6). For the same compound, the “6-month OS (95% CI)” value [1, 3] was 68.4 (54.4–78.9) %, the “6-month PFS (95% CI)” value [1, 3] was 15.5 (7.5–26.0) % and the “9-month PFS (95% CI)” value [1, 3] was 5.8 (1.7–14.3). For the same compound, the “12-month OS (95% CI)” value [1, 3] was 41.6 (28.0–54.7) %, the “12-month PFS (95% CI)” value [1, 3] was 3.9 (0.7–11.6) and the “Best overall response: Complete response” value [1, 3] was 0 n, %. For the same compound, the “Best overall response: Partial response” value [1, 3] was 0 n, %, the “Best overall response: Progressive disease” value [1, 3] was 29 (38) n, % and the “Best overall response: Stable disease” value [1, 3] was 37 (49%) n, % and 37 (49) n, %. For the same compound, the “Best overall response: Unevaluable” value [1, 3] was 10 (13) n, %, the “Clinical benefit rate, 3 months (95% CI)” value [1, 3] was 48.7 (37.0–60.4) % and the “Clinical benefit rate, 6 months (95% CI)” value [1, 3] was 15.8 (8.4–26.0) %. For the same compound, the “Clinical benefit rate, 9 months (95% CI)” value [1, 3] was 1.3 (0.0–7.1) %, the “Median OS (95% CI)” value [1, 3] was 9.2 (6.3–18.4) months and the “Median PFS (95% CI)” value [1, 3] was 1.9 (1.4–3.2) months. For the same compound, the “Overall survival: No. of deaths” value [1, 3] was 33 (43%) n, % and 33 (43) n, %, the “Progression-free survival: No. of events” value [1, 3] was 59 (78) n, % and the Objective responses ([1]; all 76 solid tumor patients) was “no objective responses”. The “Duration of stable disease on study” value ([1]; case: locoregionally recurrent ACC, NOTCH-activating mutation present) was 3 months, the “Tumor regression in right parapharyngeal mass” value ([1]; case: locoregionally recurrent ACC, NOTCH-activating mutation present (30 to 25 mm)) was −17% and the “Tumor regression in dominant liver lesion” value ([1]; case: patient with metastatic ACC with rapid progression prior to study entry (26.1–19.4 mm)) was −25.7%. The “Duration of stable disease on study” value ([1]; case: patient with metastatic ACC, dominant liver lesion) was 8 months, the “Median OS” value ([1]; heavily pretreated ACC cohort) was “under 2 years” and the “Duration of SD” value ([1]; one patient, NOTCH1-activated metastatic ACC with tumor BCL2 overexpression, 250 mg twice daily) was 3 months. For the same compound, the “ACC patients exhibiting SD” value ([1]; patients with ACC (n = 40)) was 58%, the “HEY1 percent change in peripheral expression” value (shortened to “HEY1 percent change”) (HEY1; [4]) was 52.3% and the “HEY1 percent change” value (HEY1; [5]) was -52.0%. For the same compound, the “HEY1 percent change” value (HEY1; [6]) was 5.0% and -36.1% and 30.3% and -25.6%, the “HEY1 percent change” value (HEY1; [7]) was 11.7% and -71.3% and -75.9% and -55.2% and -57.8% and the “IL7R alpha percent change in peripheral expression” value (“IL7R alpha percent change” for short) (IL7R alpha; [4]) was -29.7%. The “IL7R alpha percent change” value (IL7R alpha; [5]) was 32.3% and 33.5%, the “IL7R alpha percent change” value (IL7R alpha; [6]) was 58.3% and -58.0% and -24.8% and -2.9% and -29.3% and the “IL7R alpha percent change” value (IL7R alpha; [7]) was -53.6% and 3.5% and -16.2% and 0.2% and -41.7%. The “NOTCH 2 percent change in peripheral expression” value (from here on “NOTCH 2 percent change”) (NOTCH 2; [4]) was -9.4%, the “NOTCH 2 percent change” value (NOTCH 2; [5]) was 19.9% and -9.6% and the “NOTCH 2 percent change” value (NOTCH 2; [6]) was -25.2% and -38.4% and -5.5% and -14.8% and -41.1%. For the same compound, the “NOTCH 2 percent change” value (NOTCH 2; [7]) was -31.8% and -14.2% and -39.3% and -15.2% and 5.1%, the “NOTCH1 percent change in peripheral expression” value (shortened to “NOTCH1 percent change”) (NOTCH1; [4]) was -15.5% and the “NOTCH1 percent change” value (NOTCH1; [5]) was 39.2% and -7.1%. For the same compound, the “NOTCH1 percent change” value (NOTCH1; [6]) was -28.1% and -41.2% and -35.7% and -14.2% and -39.7%, the “NOTCH1 percent change” value (NOTCH1; [7]) was -8.7% and -0.1% and -58.3% and -20.2% and -13.3% and the “NOTCH4 percent change in peripheral expression” value (shortened to “NOTCH4 percent change”) (NOTCH4; [4]) was -3.5%. The “NOTCH4 percent change” value (NOTCH4; [5]) was 37.6% and -16.9%, the “NOTCH4 percent change” value (NOTCH4; [6]) was 34.0% and -49.7% and -7.9% and 11.5% and 32.9% and the “NOTCH4 percent change” value (NOTCH4; [7]) was -20.8% and -40.4% and 22.0% and 4.5% and 29.7%.
